In patent publication US6906198B1, “Antipicornaviral compounds, their preparation and use” (Agouron Pharmaceuticals, Inc., priority 1998, dated 2005):
pEC50: −log10 of the molar value. Read-outs that look alike come from different tables or passages of the source.

Assays:
HRV-14 = assay: Antirhinoviral H1-HeLa cell culture assay (XTT), HRV-14; format: cell-based, human rhinovirus
Description: (§1) Antirhinoviral H1-HeLa Cell Culture Assay
(§2) In this cell protection assay, the ability of compounds to protect cells against HRV infection was measured by the XTT dye reduction method, which is described in Weislow et al., J. Natl. Cancer Inst. 1989, vol. 81, 577-586.
(§3) H1-HeLa cells were infected with HRV-14 at a multiplicity of infection (m.o.i.) of 0.13 (virus particles/cell) or mock-infected with medium only. Infected or mock-infected cells were resuspended at 8×10^5 cells per mL, and incubated with appropriate concentrations of the compounds to be tested. Two days later, XTT/PMS was added to test plates and the amount of formazan produced was quantified spectrophotometrically at 450/650 nm. The EC50 value was calculated as the concentration of compound that increased the percentage of formazan production in compound-treated, virus-infected cells to 50% of that produced by compound-free, mock-infected cells. The 50% cytotoxic dose (CC50) was calculated as the concentration of compound that decreased the percentage of formazan produced in compound-treated, mock-infected cells to 50% of that produced by compound-free, mock-infected cells. The therapeutic index (TI) was calculated by dividing the CC50 value by the EC50 value.
(§4) All strains of human rhinovirus (HRV) for use in this assay were purchased from American Type Culture Collection (ATCC), except for HRV serotype-14 (produced from the infectious cDNA clone constructed by Dr. Robert Rueckert, Institute for Molecular Virology, University of Wisconsin, Madison, Wis.). HRV stocks were propagated and viral assays were performed in H1-HeLa cells (ATCC). Cells were grown in minimal essential medium with 10% fetal bovine serum, available from Life Technologies (Gaithersburg, Md.).
The compounds were tested against control compounds WIN 51711, WIN 52084, and WIN 54954 (obtained from Sterling-Winthrop Pharmaceuticals), Pirodavir (obtained from Janssen Pharmaceuticals), and Pleconaril (prepared according to the method described in Diana et al., J. Med. Chem 1995, vol. 38, 1355). Antiviral data obtained for the test compounds are shown in Tables 1 and 3, where all data are for HRV serotype-14 unless otherwise noted in parentheses.

HRV serotype 10 = assay: Antirhinoviral H1-HeLa cell culture assay (XTT), HRV-10; format: cell-based, human rhinovirus; settings: H1-HeLa cells
Description: as §1, §2, §3, §4
(§5) The compounds were tested against control compounds WIN 51711, WIN 52084, and WIN 54954 (obtained from Sterling-Winthrop Pharmaceuticals), Pirodavir (obtained from Janssen Pharmaceuticals), and Pleconaril (prepared according to the method described in Diana et al., J. Med. Chem 1995, vol. 38, 1355). […]

HRV serotype 1A = assay: Antirhinoviral H1-HeLa cell culture assay (XTT), HRV-1A; format: cell-based, human rhinovirus; settings: H1-HeLa cells
Description: as §1, §2, §3, §4, §5

[1] = Cytotoxicity in uninfected MRC-5 cells (anti-echoviral/-enteroviral assay, XTT); format: cell-based; settings: human, 50% cytotoxic dose
Description: Echovirus type 11 (EV 11) and enterovirus type 70 (EV 70) were purchased from ATCC (Rockville, Md.). Virus stocks were propagated and antiviral assays were performed in MRC-5 cells (ATCC). Cells were grown in minimal essential medium with 10% fetal bovine serum (Life Technologies, Gaithersburg, Md.).
The ability of compounds to protect cells against either EV 11 or EV 70 infection was measured by the XTT dye reduction method (Weislow et al., J. Natl. Cancer Inst. 1989, vol. 81, 577-586). MRC-5 cells were infected with EV 11 or EV 70 at an m.o.i. of 0.003 or 0.004, respectively, or mock-infected with medium only. Infected or uninfected cells were added at 1×10^4 cells per well and incubated with appropriate concentrations of compound. Four days later, XTT/PMS was added to test plates, and the amount of formazan produced was quantified spectrophotometrically at 450/650 nm. The EC50 was calculated as the concentration of compound that increased the formazan production in compound-treated, virus-infected cells to 50% of that produced by compound-free, uninfected cells. The 50% cytotoxic dose (CC50) was calculated as the concentration of compound that decreased formazan production in compound-treated, uninfected cells to 50% of that produced in compound-free, uninfected cells. The therapeutic index (TI) was calculated by dividing the CC50 by the EC50.

[2] = Cytotoxicity in mock-infected H1-HeLa cells (antirhinoviral assay, XTT); format: cell-based; settings: human, 50% cytotoxic dose
Description: as §3, §4

[3] = Cytotoxicity in uninfected H1-HeLa cells (anticoxsackieviral assay, XTT); format: cell-based; settings: human; 50% cytotoxic dose, uninfected H1-HeLa cells (Table 4)
Description: Coxsackievirus types A-21 (CAV-21) and B3 (CVB-3) were purchased from American Type Culture Collection (ATCC, Rockville, Md.). Virus stocks were propagated and antiviral assays were performed in H1-HeLa cells (ATCC). Cells were grown in minimal essential medium with 10% fetal bovine serum (Life Technologies, Gaithersburg, Md.).
The ability of compounds to protect cells against either CAV-21 or CVB-3 infection was measured by the XTT dye reduction method. This method is described in Weislow et al., J. Natl. Cancer Inst. 1989, vol. 81, 577-586. H1-HeLa cells were infected with CAV-21 or CVB-3 at a multiplicity of infection (m.o.i.) of 0.025 or 0.075, respectively, or mock-infected with medium only. H1-HeLa cells were plated at 4×10^4 cells per well in a 96-well plate and incubated with appropriate concentrations of the test compound. One day (CVB-3) or two days (CAV-21) later, XTT/PMS was added to test plates and the amount of formazan produced was quantified spectrophotometrically at 450/650 nm. The EC50 was calculated as the concentration of compound that increased the formazan production in compound-treated, virus-infected cells to 50% of that produced by compound-free, uninfected cells. The 50% cytotoxic dose (CC50) was calculated as the concentration of compound that decreased formazan production in compound-treated, uninfected cells to 50% of that produced in compound-free, uninfected cells. The therapeutic index (TI) was calculated by dividing the CC50 by the EC50.

[4] = HRV serotype-14, H1-HeLa cells (Table 1), read-out: Cell Protection EC50
[5] = HRV serotype-14, H1-HeLa cells (Table 3), read-out: EC50

| pEC50 (HRV-14; [4]) | pEC50 (HRV-14; [5]) | pEC50 (HRV serotype 10) | pEC50 (HRV serotype 1A) | Structure (SMILES) | CC50 at 4 days [1] | CC50 at 2 days [2] | CC50 [3] |
| --- | --- | --- | --- | --- | --- | --- | --- |
| 6.66 | 6.66 | 5.57 | 5.15 | CCOC(=O)/C=C/[C@H](CCC(N)=O)NC(=O)[C@H](Cc1ccc(C)cc1)NC(=O)[C@@H](NC(=O)C1SCCS1)C(C)(C)C [(A-15)] | – | – | – |
| 6.35 | 6.35 | 5.35 | 5.32 | CCOC(=O)/C=C/[C@H](CCC(N)=O)NC(=O)[C@H](Cc1ccc(C)cc1)NC(=O)[C@@H](NC(=O)c1ccc[nH]1)C(C)(C)C [(A-16)] | – | – | – |
| – | – | – | – | CCOC(=O)/C=C/[C@H](C[C@@H]1CCNC1=O)NC(=O)[C@@H](CC(=O)[C@@H](NC(=O)c1cc(C)on1)C(C)C)Cc1ccc(F)cc1 [(B-2), Ethyl-3-{(5′-Methylisoxazole-3′-carbonyl)-L-ValΨ(COCH2)-L-(4-F-Phe)-L-((S)-Pyrrol-Ala)}-E-Propenoate] | > 100000 nM | > 100000 nM | > 100000 nM |
